# Patent US20230203095A1, “BIOLOGICAL PEPTIDE FOR TREATING LUNG DISEASES AND APPLICATION THEREOF” (SHANGHAI INSTITUTE OF PHARMACEUTICAL INDUSTRY CO., LTD., priority 2019, published 2023)
# Where “and” joins values, the source holds several entries; their conditions need not be identical. Equal values may be shown once. Peptide text beside a SMILES is read from it. * marks the point of attachment. X1 = CC(=O)N[C@H]1C(*)O[C@H](CO)[C@@H](O)[C@@H]1O
# Assay: Plasma drug concentrations and pharmacokinetics after a single intravenous or subcutaneous injection of SIPI-G9 in SD rats
# Details: for level at 3 h: 180 min; for level at 4 h: 240 min; for clearance: CL; for MRT last: MRT0-t
# Method: Routes: single back subcutaneous injection and single tail vein injection;
# Orbital blood was collected at different time points before and after administration. […] High concentration samples were diluted with blank plasma.
# Column: SHIM-PACK GISS C18 (2.1 × 100 mm, 1.9 µm); injection volume: 20 µL; mobile phase: phase A: 0.2% acetic acid in water; phase B: methanol, gradient elution (see Table 16 for details);
# The ion source is electrospray ionization source (ESI); the drying gas (N2) temperature is 550° C.; the electrospray voltage is 5500 V; the detection method is positive ion detection; the scanning method is the selective reaction monitoring (MRM) method, and the scanning time is 0.15 s.
# 50 µL plasma was taken and 5 µL internal standard solution (DX07 (His-Leu-Glu-Thr-Glu-Leu-His) 100 ng/mL) was added. After that, 150 µL of methanol was added to precipitate proteins, then centrifuged at 13,000 rpm for 5 min, and 160 µL supernatant was taken and dried with 40° C. N2, then reconstituted with 75 µL of 0.1% formic acid aqueous solution.
# Pharmacokinetic parameters were calculated using the non-compartmental model of DAS 2.0 software. Both Cmax and Tmax are measured values; AUC, T½, CL and Vz are calculated by DAS 2.0.
# [1] = SIPI-G9 1 mg/kg i.v., SD rats, individual rats, 1 mg/kg
# [2] = male, SD, rat, plasma, sc, 5 mg/kg, Plasma G-9 concentration, Mean, SIPI-G9 5 mg/kg s.c., SD rats, n=3
# [3] = male, SD, rat, plasma, sc, 5 mg/kg, Plasma G-9 concentration, SIPI-G9 5 mg/kg single subcutaneous injection, SD rats, individual rats
# [4] = rat, in vivo, iv, 1 mg/kg, Mean
# [5] = rat, in vivo, sc, 5 mg/kg, Mean
smiles,measurement,setting,value
"CC(=O)N[C@H]1C(OC[C@H](NC(=O)[C@@H](NC(=O)[C@H](Cc2ccc(O)cc2)NC(=O)[C@@H](NC(=O)[C@H](CCC(N)=O)NC(=O)CN)[C@@H](C)OC2O[C@H](CO)[C@@H](O)[C@H](O)[C@H]2NC(C)=O)[C@@H](C)O)C(=O)NCC(=O)O)O[C@H](CO)[C@@H](O)[C@@H]1O (some centres unmarked) [SIPI-G9, GQT(Glc)YTS(Glc)G] (H-GQT(X1)YTS(X1)G-OH)",T1/2,[1],8.50 min and 7.50 min
same,Vd,[1],2.23 L/kg and 1.29 L/kg
same,Plasma G-9 concentration,"SIPI-G9 1 mg/kg single intravenous injection, SD rats, 3 min, individual rats, 1 mg/kg",714 ng/mL and 573 ng/mL and 737 ng/mL
same,Plasma G-9 concentration,"SIPI-G9 1 mg/kg single intravenous injection, SD rats, 6 min, individual rats, 1 mg/kg",265 ng/mL and 231 ng/mL and 295 ng/mL
same,Plasma G-9 concentration,"SIPI-G9 1 mg/kg single intravenous injection, SD rats, 10 min, individual rats, 1 mg/kg",124 ng/mL and 120 ng/mL and 377 ng/mL
same,Plasma G-9 concentration,"SIPI-G9 1 mg/kg single intravenous injection, SD rats, 20 min, individual rats, 1 mg/kg",33.5 ng/mL and 31.6 ng/mL and 80.0 ng/mL
same,Plasma G-9 concentration,"SIPI-G9 1 mg/kg single intravenous injection, SD rats, 40 min, individual rats, 1 mg/kg",6.09 ng/mL and 5.68 ng/mL and 6.78 ng/mL
same,Plasma G-9 concentration,"SIPI-G9 1 mg/kg single intravenous injection, SD rats, 60 min, individual rats, 1 mg/kg",1.33 ng/mL and 1.21 ng/mL and 2.00 ng/mL
same,Plasma G-9 concentration,"SIPI-G9 5 mg/kg single subcutaneous injection, SD rats, 0 min, individual rats",0 ng/mL
same,Plasma G-9 concentration,"SIPI-G9 5 mg/kg single subcutaneous injection, SD rats, 40 min, individual rats, 5 mg/kg",229 ng/mL
same,Plasma G-9 concentration,"SIPI-G9 5 mg/kg single subcutaneous injection, SD rats, 120 min, individual rats, 5 mg/kg",28.5 ng/mL and 33.5 ng/mL and 24.5 ng/mL
same,AUC(0-t),"male, SD, rat, in vivo, iv, 1 mg/kg",114 ng·h/mL
same,AUC(0-t),"male, SD, rat, in vivo, sc, 5 mg/kg",490 ng·h/mL
same,level at 0.05 h,"male, SD, rat, plasma, iv, 1 mg/kg, Plasma G-9 concentration, Mean, SIPI-G9 1 mg/kg i.v., SD rats, 3 min, n=3",675 ng/mL
same,level at 0.1 h,"male, SD, rat, plasma, iv, 1 mg/kg, Plasma G-9 concentration, Mean, SIPI-G9 1 mg/kg i.v., SD rats, 6 min, n=3",264 ng/mL
same,level at 10 min,"male, SD, rat, plasma, iv, 1 mg/kg, Plasma G-9 concentration, Mean, SIPI-G9 1 mg/kg i.v., SD rats, 10 min, n=3",207 ng/mL
same,level at 20 min,"male, SD, rat, plasma, iv, 1 mg/kg, Plasma G-9 concentration, Mean, SIPI-G9 1 mg/kg i.v., SD rats, 20 min, n=3",48.4 ng/mL
same,level at 40 min,"male, SD, rat, plasma, iv, 1 mg/kg, Plasma G-9 concentration, Mean, SIPI-G9 1 mg/kg i.v., SD rats, 40 min, n=3",6.18 ng/mL
same,level at 1 h,"male, SD, rat, plasma, iv, 1 mg/kg, Plasma G-9 concentration, Mean, SIPI-G9 1 mg/kg i.v., SD rats, 60 min, n=3",1.51 ng/mL
same,level at 0.05 h,"male, SD, rat, plasma, sc, 5 mg/kg, Plasma G-9 concentration, Mean, SIPI-G9 5 mg/kg s.c., SD rats, 3 min, n=3",699 ng/mL
same,level at 0.1 h,"male, SD, rat, plasma, sc, 5 mg/kg, Plasma G-9 concentration, Mean, SIPI-G9 5 mg/kg s.c., SD rats, 6 min, n=3",1020 ng/mL
same,level at 10 min,"male, SD, rat, plasma, sc, 5 mg/kg, Plasma G-9 concentration, Mean, SIPI-G9 5 mg/kg s.c., SD rats, 10 min, n=3",796 ng/mL
same,level at 20 min,"male, SD, rat, plasma, sc, 5 mg/kg, Plasma G-9 concentration, Mean, SIPI-G9 5 mg/kg s.c., SD rats, 20 min, n=3",408 ng/mL
same,level at 40 min,"male, SD, rat, plasma, sc, 5 mg/kg, Plasma G-9 concentration, Mean, SIPI-G9 5 mg/kg s.c., SD rats, 40 min, n=3",228 ng/mL
same,level at 1 h,"male, SD, rat, plasma, sc, 5 mg/kg, Plasma G-9 concentration, Mean, SIPI-G9 5 mg/kg s.c., SD rats, 60 min, n=3",131 ng/mL
same,level at 2 h,"male, SD, rat, plasma, sc, 5 mg/kg, Plasma G-9 concentration, Mean, SIPI-G9 5 mg/kg s.c., SD rats, 120 min, n=3",28.8 ng/mL
same,level at 3 h,[2],6.01 ng/mL
same,level at 4 h,[2],0.708 ng/mL
same,level at 0.05 h,"male, SD, rat, plasma, sc, 5 mg/kg, Plasma G-9 concentration, SIPI-G9 5 mg/kg single subcutaneous injection, SD rats, 3 min, individual rats",758 ng/mL
same,level at 0.1 h,"male, SD, rat, plasma, sc, 5 mg/kg, Plasma G-9 concentration, SIPI-G9 5 mg/kg single subcutaneous injection, SD rats, 6 min, individual rats",904 ng/mL
same,level at 10 min,"male, SD, rat, plasma, sc, 5 mg/kg, Plasma G-9 concentration, SIPI-G9 5 mg/kg single subcutaneous injection, SD rats, 10 min, individual rats",633 ng/mL
same,level at 20 min,"male, SD, rat, plasma, sc, 5 mg/kg, Plasma G-9 concentration, SIPI-G9 5 mg/kg single subcutaneous injection, SD rats, 20 min, individual rats",324 ng/mL
same,level at 40 min,"male, SD, rat, plasma, sc, 5 mg/kg, Plasma G-9 concentration, SIPI-G9 5 mg/kg single subcutaneous injection, SD rats, 40 min, individual rats",230 ng/mL
same,level at 1 h,"male, SD, rat, plasma, sc, 5 mg/kg, Plasma G-9 concentration, SIPI-G9 5 mg/kg single subcutaneous injection, SD rats, 60 min, individual rats",118 ng/mL
same,level at 3 h,[3],6.6 ng/mL
same,level at 4 h,[3],0.807 ng/mL
same,Fa (absolute bioavailability),"rat, in vivo",96.6%
same,bioavailability,"rat, in vivo, Fa (absolute bioavailability)",79.2%
same,clearance,"rat, in vivo, iv, 1 mg/kg",151 mL/min/kg
same,clearance,[4],151 mL/min/kg
same,Cmax,"rat, in vivo, iv, 1 mg/kg",714 ng/mL
same,Cmax,[4],675 ng/mL
same,MRT last,"rat, in vivo, iv, 1 mg/kg",5.49 min
same,MRT last,[4],6.63 min
same,half-life,"rat, in vivo, iv, 1 mg/kg, T1/2, Mean, SIPI-G9 1 mg/kg i.v., SD rats, n=3",8.2 min
same,half-life,"rat, in vivo, iv, 1 mg/kg, T1/2, SIPI-G9 1 mg/kg i.v., SD rats, individual rats",8.59 min
same,Tmax,"rat, in vivo, iv, 1 mg/kg",3 min
same,Tmax,[4],3 min
same,Vd,"rat, in vivo, iv, 1 mg/kg, Vd, Mean, SIPI-G9 1 mg/kg i.v., SD rats, n=3",1.8 L/kg
same,Vd,"rat, in vivo, iv, 1 mg/kg, Vd, SIPI-G9 1 mg/kg i.v., SD rats, individual rats",1.87 L/kg
same,Cmax,"rat, in vivo, sc, 5 mg/kg",904 ng/mL
same,Cmax,[5],1020 ng/mL
same,MRT last,"rat, in vivo, sc, 5 mg/kg",34.3 min
same,MRT last,[5],33.9 min
same,Tmax,"rat, in vivo, sc, 5 mg/kg",6 min
same,Tmax,[5],7 min
